Measurements from ChEMBL document CHEMBL1201862, “PubChem BioAssay data set” (2004).
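Dose response: 5 concentrations. Exposure: 48 h. Format: 96-well plates. Endpoint: linear interpolation; highest concentration if not reached. At the GI50, growth is halved.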 Activity calls are given as the source filed them. Cut-off read from the data, not from the text of the source: active = GI50 up to about 1.1 µM and inactive = higher.

How the values were obtained:
Assay in all cases: inhibition of tumour cell growth, NCI panel, 48 h
BT-549 = test system: BT-549
SK-MEL-5 = test system: SK-MEL-5
SF-295 = test system: SF-295
HCT-15 = test system: HCT-15
SW-620 = test system: SW-620
A549 = test system: A549
HT-29 = test system: HT-29
NCI-H460 = test system: NCI-H460
MDA-MB-231 = test system: MDA-MB-231
T47D = test system: T47D
HOP-62 = test system: HOP-62
Malme-3M = test system: Malme-3M
OVCAR-4 = test system: OVCAR-4
EKVX = test system: EKVX
NCI-H23 = test system: NCI-H23
K562 = test system: K562
SK-OV-3 = test system: SK-OV-3
786-0 = test system: 786-0
SN12C = test system: SN12C
UO-31 = test system: UO-31

Structure (SMILES) | GI50 (BT-549) | GI50 (SK-MEL-5) | GI50 (SF-295) | GI50 (HCT-15) | GI50 (SW-620) | GI50 (A549) | GI50 (HT-29) | GI50 (NCI-H460) | GI50 (MDA-MB-231) | GI50 (T47D) | GI50 (HOP-62) | GI50 (Malme-3M) | GI50 (OVCAR-4) | GI50 (EKVX) | GI50 (NCI-H23) | GI50 (K562) | GI50 (SK-OV-3) | GI50 (786-0) | GI50 (SN12C) | GI50 (UO-31)
COC1C(OC(=O)c2ccc(C)[nH]2)C(O)C(Oc2ccc3c(O)c(NC(=O)c4ccc(O)c(CC=C(C)C)c4)c(=O)oc3c2Cl)OC1(C)C (stereo not drawn) | 17 µM (inactive) | 19.7 µM (inactive) | 17.7 µM (inactive) | 18.5 µM | 18.5 µM (inactive) | 24.3 µM (inactive) | 15 µM (inactive) | 21.2 µM (inactive) | 21.1 µM (inactive) | 15.9 µM (inactive) | 15.5 µM (inactive) | 15.5 µM (inactive) | 26.6 µM (inactive) | 18.7 µM (inactive) | 20.1 µM (inactive) | 29.6 µM (inactive) | 20.4 µM (inactive) | 15.8 µM (inactive) | 20.7 µM (inactive) | 
C/C(=C\CO)CC[C@@H]1[C@@]2(C)CCCC(C)(C)[C@@H]2CC[C@@]1(C)O | 18.3 µM (inactive) | 17.9 µM (inactive) | 17.6 µM (inactive) | 17.3 µM | 22.7 µM (inactive) | 29.6 µM (inactive) | 21.3 µM (inactive) | 17.3 µM (inactive) | 17.3 µM (inactive) | 18.2 µM (inactive) |  | 19.7 µM (inactive) | 17.3 µM (inactive) | 24.8 µM (inactive) | 20.5 µM (inactive) | 16.5 µM (inactive) | 21.3 µM (inactive) | 20.4 µM (inactive) | 17.5 µM (inactive) | 23.4 µM (inactive)
COc1ccc(C2OCCN2C)cc1 (stereo not drawn) | > 100 µM (inactive) | > 100 µM (inactive) | > 100 µM (inactive) | > 100 µM | > 100 µM (inactive) | > 100 µM (inactive) | > 100 µM (inactive) | 87.1 µM (inactive) | > 100 µM (inactive) | > 100 µM (inactive) | > 100 µM (inactive) | > 100 µM (inactive) | > 100 µM (inactive) | > 100 µM (inactive) | > 100 µM (inactive) | > 100 µM (inactive) | > 100 µM (inactive) | > 100 µM (inactive) |  | > 100 µM (inactive)
CCOC(=O)c1cc(C(O)P2(=O)N(CC(C)(C)C)[C@@H]3CCCC[C@H]3N2CC(C)(C)C)cn1C(=O)OC(C)(C)C (stereo partly drawn) | 17 µM (inactive) | 17.5 µM (inactive) | 15 µM (inactive) | 17.1 µM | 16.2 µM (inactive) | 15.7 µM (inactive) | 13.8 µM (inactive) |  | 16 µM (inactive) | 15.1 µM (inactive) | 13.7 µM (inactive) | 13.7 µM (inactive) | 13.9 µM (inactive) | 20.5 µM (inactive) | 24.3 µM (inactive) | 20.1 µM (inactive) | 20 µM (inactive) | 15.6 µM (inactive) | 13.3 µM (inactive) | 15.3 µM (inactive)
Cc1cc2c(cc1Cl)S(=O)(=O)OC(c1ccc([N+](=O)[O-])cc1)=N2 | > 100 µM (inactive) | > 100 µM (inactive) | > 100 µM (inactive) | > 100 µM | > 100 µM (inactive) | > 100 µM (inactive) | > 100 µM (inactive) | > 100 µM (inactive) | > 100 µM (inactive) | > 100 µM (inactive) | > 100 µM (inactive) | > 100 µM (inactive) | > 100 µM (inactive) | > 100 µM (inactive) |  | 91 µM (inactive) | > 100 µM (inactive) | > 100 µM (inactive) | > 100 µM (inactive) | > 100 µM (inactive)
O=C1C=C(O)C(=O)c2c(O)ccc(O)c21 | > 100 µM (inactive) | > 100 µM (inactive) | > 100 µM (inactive) | > 100 µM | > 100 µM (inactive) | > 100 µM (inactive) | 51.9 µM (inactive) | > 100 µM (inactive) | > 100 µM (inactive) | > 100 µM (inactive) | > 100 µM (inactive) | 88.5 µM (inactive) | > 100 µM (inactive) |  | > 100 µM (inactive) | > 100 µM (inactive) | > 100 µM (inactive) | > 100 µM (inactive) |  | > 100 µM (inactive)
COC1=C2CC(C)CC(OC)C(OC(=O)CCCN)C(C)/C=C(\C)C(OC(N)=O)C(OC)/C=C\C=C(/C)C(=O)NC(=CC1=O)C2=O (stereo not drawn) | 4.29 µM (inactive) | 9.14 µM (inactive) | 16.9 µM (inactive) | 4.97 µM | 0.873 µM (active) | 25.5 µM (inactive) | 2.43 µM (inactive) | 15.5 µM (inactive) | 9.16 µM (inactive) | 1.09 µM (active) | 17.3 µM (inactive) | 2.29 µM (inactive) | 7 µM (inactive) | 13.2 µM (inactive) | 3.65 µM (inactive) | 0.54 µM (active) | 15.5 µM (inactive) | 3.68 µM (inactive) | 5.5 µM (inactive) | 10.5 µM (inactive)
COc1ccc(OC)c(C2CCc3c(cnc4nc(N)nc(N)c34)C2)c1 (stereo not drawn) | 14.3 µM (inactive) | 11 µM (inactive) | 7.23 µM (inactive) | 5.42 µM | 10.1 µM (inactive) | 1.24 µM (inactive) | 2 µM (inactive) | 2.07 µM (inactive) | 12.2 µM (inactive) | 20.7 µM (inactive) | 12.2 µM (inactive) | 4.83 µM (inactive) | 10.2 µM (inactive) | 1.58 µM (inactive) |  | 0.573 µM (active) | 16 µM (inactive) | 4.48 µM (inactive) | 8.83 µM (inactive) | 
Cc1cn(CC2=NC3CCCCC3N2)c(=O)[nH]c1=O (stereo not drawn) | > 100 µM (inactive) | > 100 µM (inactive) | > 100 µM (inactive) | > 100 µM | > 100 µM (inactive) | > 100 µM (inactive) | > 100 µM (inactive) | > 100 µM (inactive) | > 100 µM (inactive) | > 100 µM (inactive) | > 100 µM (inactive) | > 100 µM (inactive) |  | > 100 µM (inactive) | > 100 µM (inactive) | > 100 µM (inactive) | > 100 µM (inactive) | > 100 µM (inactive) | > 100 µM (inactive) | > 100 µM (inactive)
O=S(=O)(O)c1ccc2c(/N=N/c3ccccc3)c(O)c(S(=O)(=O)O)cc2c1 | > 100 µM (inactive) | > 100 µM (inactive) | > 100 µM (inactive) | > 100 µM | > 100 µM (inactive) | > 100 µM (inactive) |  | > 100 µM (inactive) | > 100 µM (inactive) | > 100 µM (inactive) | > 100 µM (inactive) | > 100 µM (inactive) | > 100 µM (inactive) | 67 µM (inactive) | > 100 µM (inactive) | > 100 µM (inactive) | > 100 µM (inactive) | > 100 µM (inactive) | > 100 µM (inactive) | > 100 µM (inactive)
Cc1cc(S(=O)(=O)Nc2nc3ccccc3nc2-c2ccc(Cl)cc2)c(S)cc1Cl | 23.8 µM (inactive) | 14 µM (inactive) | 18.9 µM (inactive) | 20.1 µM |  | 16.4 µM (inactive) | 17.5 µM (inactive) | 13.6 µM (inactive) | 24.5 µM (inactive) | 14.5 µM (inactive) | 22.4 µM (inactive) | 22.7 µM (inactive) | 14.6 µM (inactive) | 15.7 µM (inactive) | 18.5 µM (inactive) | 19.9 µM (inactive) | 17.3 µM (inactive) | 21 µM (inactive) | 25.6 µM (inactive) | 15.9 µM (inactive)
